From patent publication US10752591B2, “18-20 member bi-polycyclic compounds” (Haro Pharmaceutical Inc., priority 2014, dated 2020)

Key:
RXR = test: RXR-mediated transcription, RXRE luciferase reporter in MCF7 cells; type: cell-based
Text: (§1) The effect of various compounds of the invention on RAR-mediated transcription in MCF7 breast cancer cells was examined by measuring their effect on the transcription of a luciferase reporter gene under the control of a TK promoter placed downstream of a RAR response element. In addition, the effect of the compounds on the closely related RXR-mediated transcription was examined by measuring their effect on the transcription of a luciferase reporter gene under the control of a TK promoter placed downstream of a RXR response element.
(§2) Typically, 10,000 cells were plated in 96 wells plates in phenol red-free RPMI medium supplemented with 10% charcoal-stripped Fetal Bovine Serum. After 24 hours, cells were transfected with 0.1 μg of luciferase reporter plasmid and 0.01 μg of a reporter plasmid expressing renilla luciferase (RLuc) gene under the control of a SV40 promoter, using Fugene 6 transfection reagent (0.5 μl/well Promega Corporation). Cells were treated in triplicate with compounds or vehicle (DMSO) for 24 hours. Luciferase and renilla luciferase activities were measured using Dual-Glo reagent (Promega Corporation). Luciferase activity was normalized in each well for renilla activity.

C2Cl2 cells [1] = test: myoblast fusion in long term C2Cl2 cultures (MHC immunocytochemistry); type: cell-based; conditions: for fusion of single cells into multinucleated C2Cl2 myotubes: long-term culture, suboptimal RPMI media with 2% horse serum
Description: The effect of compounds on myoblast fusion was examined in C2Cl2 cells maintained in RPMI media supplemented with 2% horse serum. C2Cl2 myoblastic cells where purchased from the American Type Culture Collection (ATCC) and maintained undifferentiated in RPMI media (Corning) supplemented with 2 mM L-Alanine-L-Glutamine (ATCC) and 1 mM pyruvate (Corning). Undifferentiated cells where maintained below 70% confluence. For long term cultures and compound treatment, cells where plated at high density CellBIND Culture Dishes (corning 3294, 3296, 3337) and in RPMI supplemented with 2% Horse Serum (Gibco) and 2 mM L-Alanine-L-Glutamine (ATCC) and 1 mM pyruvate (Corning). Compounds were dissolved in DMSO at 1000 time the final concentration and diluted 1-in-1000 in the media covering the cells. Media and compounds were changed daily. For immunocytochemistry, cells were fixed in 2% PFA in HBSS for 10 minutes and left in HBSS at 4° under humidified atmosphere and processed for immunocytochemistry. For myosin heavy chain detection (MHC), cells were first incubated in 100 ul-1 ml 0.15 M Glycine in DPBS for 10 minutes, rinse with DPBS. 100 ul-1 ml 0.5% Triton-X in DPBS was added for 10 minutes, rinsed with DPBS, and followed by incubation with 100 ul blocking agent (10% goat serum in DPBS) for 30 min at room temperature. MF20 primary antibody in 10% goat serum in DPBS was added at 1/60 dilution for 30 min at room temperature and rinsed three times with 100 ul DPBS. IgG2b goat anti mouse secondary antibody (Jackson Immuno-Research) was added at 1:1000 in 10% goat serum in DPBS for exactly 30 min at room temperature then rinsed 3 times with 100 ul DPBS. A final rinse in H2O was performed and cells were covered with two drops of Elvanol and cover gently with cover slip and allowed to dry in the dark for 24-48 hours.

C2Cl2 myoblasts = test: myotube fusion and degeneration in differentiated C2Cl2 cells left in exhausted media; type: cell-based; conditions: 200 nM pre-treatment
Description: C2Cl2 myoblasts were seeded at 100,000 in 30 mm plate in growth medium (Phenol red-free RMPI containing 10% FBS, Sodium pyruvate and Ala-Glu), and “pre-treated” with DMSO or 200 nM of compounds 13 or 17. At confluence cells were shifted to differentiation media (high glucose DMEM, +0.2% HS+1× Insulin/Transferrin/Selenium (Life Tech 41400-045)+Glutamine, without Pyruvate). Fully differentiated C2Cl2-derived myotubes were left in culture without media renewal for 8 days followed by media renewal and microscopic examination.

C2Cl2 cells [2] = test: Q-RT PCR of myofiber-degradation associated genes in long term C2Cl2 cultures; type: cell-based; conditions: day 10, normalized for RPLP0
Description: Quantitative RT-PCR was performed on RNA prepared from cell treated as in Example 9. At day 10 of the experiment, cells were rinsed in HBSS (without calcium or magnesium) and RNA was prepared using FastLane Cell cDNA Kit (Qiagen). Quantitative PCR was performed using Eppendorf and SYBR amplification mix (Sigma-Aldrich) using the gene specific primer combination given in Table 3. Data were normalized for ribosomal housekeeping gene RPLP0

mouse pharmacokinetics = type: in vivo; conditions: mice
Description: Mouse pharmacokinetics studies were conducted in female athymic nude or male C57/B6 mice (n=3). Due to its very poor aqueous solubility, compound 17 was formulated in 66% PEG-400/33% H2O-1% Tween-80. In contrast compound 13 was formulated in 66% PEG-400/33% H2O. Compounds were administered PO (30 mg/kg) or IV (5 mg/kg), and plasma concentrations were measured by UV/HPLC.

aqueous solubility = type: physicochemical
[3] = system: Lys40 acetylated alpha tubulin; test: intracellular acetylation of alpha-tubulin in BE-2C cells; type: cell-based; conditions: 16 hours
Description: The effect of certain compounds on intracellular acetylation of target proteins was tested in high risk neuroblastoma cells, BE-2C and IMR-32 cells.
BE-2C cells were grown to confluence in phenol-red-free RPMI media supplemented with 10% FBS and 2.5 mM Ala-Glu. […] Total and Lys 40 acetylated alpha tubulin were detected using specific antibodies.
Beta actin, total and Lys382 acetylated p53, and Lys40 acetylated alpha, and total tubulin were detected using antibodies (Cell Signaling #8557, #2524 #2525, #12152 and #2144 respectively) using manufacturer recommended conditions.

RAR = test: RAR-mediated transcription, RARE-tk luciferase reporter in MCF7 cells; type: cell-based
Text: as §1, §2

[4] = target: purified recombinant human HDAC-1 (Homo sapiens, UniProt Q13547); test: HDAC-1 enzymatic inhibition (AMC fluorogenic peptide deacetylation); type: biochemical; conditions: up to
Description: (§3) The effect of compounds on the enzymatic activity of purified recombinant human HDAC-1, -2, -3, -6, and -8 activity and of purified rat liver HDAC was examined by measuring the deacetylation of synthetic peptides in various preparations of HDACs. HDAC assays were performed using a two-step enzymatic reaction where enzyme activity is correlated to the release of […] (AMC). AMC fluorescence is measured in a fluorescent plate reading using λex380 nm and λen440 nm.
(§4) The reaction was allowed to proceed for 40 min at 37° C., after which developer solution (0.5% trypsin, 10 μM trichostatin A (TSA)) was added to obtain a final concentration of 0.1% trypsin, 2 μM TSA. After 30 minutes at room temperature, the amount of free fluorogenic AMC was measured as described above.

[5] = target: T1, purified recombinant human HDAC-8 (Homo sapiens, UniProt Q9BY41); test: HDAC-8 enzymatic inhibition (Boc-Lys(Tfa)-AMC / HDAC-Glo I/II); type: biochemical; conditions: relative to compound 17
T1 construct: purchased Cayman Chem 10009465 (AMC assay (so in the source)); 19380 (HDAC-Glo assay)
T1 sequence (Q9BY41 1-377): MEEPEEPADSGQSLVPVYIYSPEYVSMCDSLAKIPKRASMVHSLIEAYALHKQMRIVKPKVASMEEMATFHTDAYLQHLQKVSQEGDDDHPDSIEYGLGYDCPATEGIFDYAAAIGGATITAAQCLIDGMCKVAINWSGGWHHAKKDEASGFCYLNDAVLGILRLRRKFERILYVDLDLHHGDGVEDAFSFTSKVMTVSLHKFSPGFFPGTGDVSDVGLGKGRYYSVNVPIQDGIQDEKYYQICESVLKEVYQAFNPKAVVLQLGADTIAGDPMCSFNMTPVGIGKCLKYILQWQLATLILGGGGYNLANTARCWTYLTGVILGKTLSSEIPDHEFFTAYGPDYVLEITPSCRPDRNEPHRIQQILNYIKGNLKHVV
Description: as §3
HDAC-8, HDAC-9, HDAC-10 and HDAC-11 were assayed using HDAC-Glo™ I/II Kit (Promega Corporation G6421) in a total volume of 110 μl following the manufacturer's instructions.
as §4

purified rat liver HDAC = purified rat liver HDAC inhibition; type: biochemical; conditions: relative to compound 17
Description: as §3, §4

[6] = system: IMR-32 neuroblastoma cells; test: cytotoxicity, cell survival (CellTiterGlo) in IMR-32; type: cell-based; conditions: relative to compounds 17 and 8
Description: (§5) The cytotoxicity of compounds was examined and directly compared to compound 17, by measuring cell survival of clonal tumor cell lines IMR-32, BE2C (neuroblastoma), as well as MDA-MB-231, BT20, HCC-38 (Basal) and MCF7 (luminal) breast cancer cells (ATCC). Cells were cultured in phenol red-free RPMI medium supplemented with 10% FBS and 1 mM Ala-Glu. Typically, 10,000-20,000 cells/well were plated in a 96 well plate (Costar 3197). Cells were exposed to compounds or vehicle (1% DMSO final). Cells were maintained in the presence of compound for four or five days. Media and compounds were renewed every 48 hours. Cell survival was measured using the luminescence CellTiterGlo kit (Promega Corporation) and expressed as relative light unit as fold over DMSO.

[7] = system: BE-2C neuroblastoma cells; test: cytotoxicity, cell survival (CellTiterGlo) in BE-2C; type: cell-based; conditions: BE-2C cells
Description: as §5

[8] = system: MDA-MB-231 breast cancer cells; test: cytotoxicity, cell survival (CellTiterGlo) in MDA-MB-231; type: cell-based; conditions: MDA-MB-231 cells
Description: as §5

[9] = mouse, plasma, PO (30 mg/kg) or IV (5 mg/kg), route per parameter not stated

Chain of purified recombinant human HDAC-1 (Q13547 whole entry): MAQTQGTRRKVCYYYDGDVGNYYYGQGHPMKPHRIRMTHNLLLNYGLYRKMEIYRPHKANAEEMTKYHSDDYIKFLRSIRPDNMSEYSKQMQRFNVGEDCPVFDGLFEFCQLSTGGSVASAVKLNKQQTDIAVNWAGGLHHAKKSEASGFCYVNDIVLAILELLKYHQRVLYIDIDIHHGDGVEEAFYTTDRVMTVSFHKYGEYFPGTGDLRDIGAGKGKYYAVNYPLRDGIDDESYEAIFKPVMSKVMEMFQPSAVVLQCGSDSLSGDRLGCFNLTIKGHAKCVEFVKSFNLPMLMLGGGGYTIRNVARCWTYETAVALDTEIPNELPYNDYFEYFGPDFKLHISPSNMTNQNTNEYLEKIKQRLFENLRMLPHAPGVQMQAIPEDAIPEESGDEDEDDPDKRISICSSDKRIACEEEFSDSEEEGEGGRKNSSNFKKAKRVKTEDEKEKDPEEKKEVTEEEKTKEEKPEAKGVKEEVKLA

CC1(C)CCC(C)(C)c2cc(-c3ccc4cc(C(=O)NO)ccc4c3)ccc21 [Compound 17]
transcriptional activation of RXR / RXRE-promoter (RXR): none
myotubes' length and diameter versus DMSO (C2Cl2 cells [1]; 300 nM): longer and larger
average nuclei per cell of polynucleated myotubes (C2Cl2 cells [1]; 300 nM, 10 days): 5-10 nuclei per cell
fusion of single cells into multinucleated C2Cl2 myotubes (C2Cl2 cells [1]): enhances the fusion
cellular fusion after 72 hours differentiation versus DMSO (C2Cl2 myoblasts): extensive cellular fusion
myotube structural atrophy in exhausted media for over 8 days (C2Cl2 myoblasts): very little structural alteration
expression of Atrogin (C2Cl2 cells [2]): downregulates
expression of myogenin (C2Cl2 cells [2]): downregulates
F (mouse pharmacokinetics; PO (30 mg/kg) and IV (5 mg/kg)): 19.7%
AUC(0-inf) (mouse pharmacokinetics; [9]): 28.7 µM·h
Cmax (mouse pharmacokinetics; [9]): 2080 nM
clearance (mouse pharmacokinetics; mouse, plasma, PO (30 mg/kg) or IV (5 mg/kg), route per parameter not stated, read-out: CLp): 10.2 mL/min/kg
MRT (mouse pharmacokinetics; mouse, plasma, PO (30 mg/kg) or IV (5 mg/kg), route per parameter not stated, read-out: MRT): 7.1 h
Tmax (mouse pharmacokinetics; mouse, plasma, PO (30 mg/kg) or IV (5 mg/kg), route per parameter not stated, read-out: Tmax): 4.3 h
Vd (mouse pharmacokinetics; mouse, plasma, PO (30 mg/kg) or IV (5 mg/kg), route per parameter not stated, read-out: Vd,ss): 4.6 L/kg
aqueous solubility (aqueous solubility): very poor

O=C(CCCCCCC(=O)Nc1ccccc1)NO [SAHA, suberoylanilide hydroxamic acid]
Lysin (K) 40 alpha-Tubulin acetylation ([3]; 2 uM): pronounced Lysin (K) 40 alpha-Tubulin acetylation

CC1(C)CCC(C)(C)c2cc(-c3ccc4cc(C(=O)NO)[nH]c4c3)ccc21 [Compound 19]
RARE-dependent luciferase expression (RAR): activated
transcriptional activation of RXR / RXRE-promoter (RXR): none

CC(/C=C/C(=O)NO)=C\[C@@H](C)C(=O)c1ccc(N(C)C)cc1 [TSA, trichostatin A]
Lysin (K) 40 alpha-Tubulin acetylation ([3]; 1 uM): pronounced Lysin (K) 40 alpha-Tubulin acetylation

CC1(C)CCC(C)(C)c2cc(-c3c[nH]c4ccc(C(=O)NO)cc34)ccc21 [Compound 5]
maximal inhibition of HDAC-1 activity [4]: ~50%
times/fold more potent than compound 17 in HDAC-8 inhibition [5]: over 200
times more potent than compound 17 in inhibition of purified rat hepatic HDAC (purified rat liver HDAC): six
transcriptional activation of RXR / RXRE-promoter (RXR): none
fold more potent than compounds 17 and 8 in killing IMR-32 cells [6]: ten

CC1(C)CCC(C)(C)c2cc(-c3c[nH]c4cc(C(=O)NO)ccc34)ccc21 [Compound 18]
maximal inhibition of HDAC-1 activity [4]: ~50%
RARE-dependent luciferase expression (RAR): activated
transcriptional activation of RXR / RXRE-promoter (RXR): none
cytotoxic potency compared with compound 17, SAHA, Ricolinistat [7]: more potent than compound 17, SAHA or Ricolinistat
cytotoxic potency compared with compound 17, SAHA, Ricolinistat [8]: more potent than compound 17, SAHA or Ricolinistat

C/C(=C\c1ccc(C(=O)NO)cc1)c1ccc2c(c1)C(C)(C)CCC2(C)C [Compound B, (E)-N-hydroxy-4-(2-(5,5,8,8-tetramethyl-5,6,7,8-tetrahydronaphthalen-2-yl)prop-1-en-1-yl)benzamide]
fusion of single cells into multinucleated C2Cl2 myotubes (C2Cl2 cells [1]): enhances the fusion

CC1(C)CCC(C)(C)c2cc(-c3ccc4nc(C(=O)NO)ccc4c3)ccc21 [Compound 8]
times more potent than compound 17 in inhibition of purified rat hepatic HDAC (purified rat liver HDAC): at least three
RARE-dependent luciferase expression (RAR): activated
transcriptional activation of RXR / RXRE-promoter (RXR): none

O=C(CCCCCCNC(=O)c1cnc(N(c2ccccc2)c2ccccc2)nc1)NO [Ricolinostat]
Lysin (K) 40 alpha-Tubulin acetylation ([3]; 2 uM): pronounced Lysin (K) 40 alpha-Tubulin acetylation

CC1(C)CCC(C)(C)c2cc(-c3ccc4cc(C(=O)NO)cnc4c3)ccc21 [Compound 20, N-hydroxy-7-(5,5,8,8-tetramethyl-5,6,7,8-tetrahydronaphthalen-2-yl)quinoline-3-carboxamide]
RARE-dependent luciferase expression (RAR): activated
transcriptional activation of RXR / RXRE-promoter (RXR): none

CC1(C)CCC(C)(C)c2cc(-c3ccc4ccc(C(=O)NO)cc4c3)ccc21 [Compound 21, N-hydroxy-5′,5′,8′,8′,-tetramethyl-5′,6′,7′,8′-tetrahydro-[2,2′-binaphthalene]-7-carboxamide]
transcriptional activation of RXR / RXRE-promoter (RXR): none
